Laboratory results as given in patent US20230390250A1, “MODULATION OF GLUCAGON-LIKE PEPTIDE 1 AND USES THEREOF” (priority 2020, published 2023).
pIC50, pKi: −log10 of the molar value. “Also recorded” adds a separate entry of the source. Where two headings read alike, the source gives them in different places.

How the values were obtained:
[1] = system: GLUTag cells; experiment: GLP-1 secretion from cultured GLUTag cells treated with LPA and/or LPAR antagonist; assay type: cell-based, mouse; conditions: for effect of LPAR antagonist alone on GLP-1 levels: 10 μM antagonist alone, 2 h; for rescue of LPA-inhibited GLP-1 secretion by LPAR antagonist: 10 μM antagonist plus 2.5 μM LPA; for decrease in GLP-1 secretion / level caused by LPA (fraction): 2-2.5 h
Procedure: We have grown GLUTag cells in culture to test effects of various LPA species and the LPAR 1/2/3 inhibitor Ki-16425. GLUTag cells are a well characterized L-cell line derived from a mouse intestinal tumour, which have been widely used to study the regulation of GLP-1. Briefly, GLUTag cells were grown until 80-90% confluent. Complete medium, containing fetal bovine serum, was replaced with medium containing charcoal[…] dextran treated serum, which removes lipids and hormones that could interfere with testing. […] This indicates a direct inhibitory effect of LPA at physiologically relevant levels on GLP-1 secretion by L-cells, and the ability of a commercially available LPAR antagonist to prevent this.
Experimental Protocol. Briefly, GLUTag cells were grown until 70-80% confluent. Complete medium (low glucose DMEM), containing fetal bovine serum, was replaced with medium containing charcoal-dextran treated serum, which removes lipids and hormones that could interfere with testing. Cells were then treated with medium containing either DMSO as vehicle control (0.1% v/v), 2.5 μM LPA, 10 μM LPAR antagonist, or a combination of the LPA species and inhibitors. For cells treated with both LPA plus LPAR inhibitor: cells were pre-treated with LPA for 30 minutes and then 10 uM LPAR inhibitor was added to the respective wells for a further 2 hours. For cells treated with LPA only, or vehicle only, the total treatment time was 2.5 hours. For cells treated with antagonist only, the treatment time was 2 hours.

[2] = system: GLP-1; experiment: Circulating GLP-1 in mice injected with LPA, with or without LPAR antagonist pre-treatment; assay type: in vivo; conditions: for rescue of the fall in blood GLP-1 levels caused by LPA: serum at 30 min (Examples 6, 8); for blood GLP-1 with antagonist alone versus vehicles: no LPA; for effect of LPA on circulating GLP-1 levels (words) / decrease in plasma GLP-1 levels after LPA injection: 50 mg/kg i.p.; for effect of LPA on circulating GLP-1 levels (words): mice; for decrease in plasma GLP-1 levels after LPA injection: 30 minutes later, n=3 (Example 3, FIG. 4)
Procedure: We injected mice i.p. with vehicle (10% DMSO in isotonic saline) or 50 mg/kg of 1-oleoyl-2-hydroxy-LPA. Half of the mice injected with LPA were pre-injected with 5 mg/kg Ki-16425 10 minutes prior to receiving LPA. Thirty minutes later, samples of blood were taken by cardiac puncture, and circulating active GLP-1 levels in plasma were analysed by enzyme linked immunosorbent assay.
(§1) The experimental protocol was as follows: • 1. Mice were administered an LPAR antagonist drug, either by oral gavage (for BMS986020, SARI 00842, AM966, AM095, or H2L51863030), or by i.p. injection (for Ki-16425, and LPA2-antagonistl) at the doses indicated in the table below. • 2. Control mice were administered only the vehicle (a 10% DMSO solution) given via the same route as the comparison drug was administered. • 3. Ten minutes later, mice were injected i.p. either with isotonic saline, or with 50 mg/kg LPA. • 4. Thirty minutes later, mice were euthanized by cervical dyslocation, and blood was collected from the heart for preparation of serum that was stored at −80C until it was analyzed for total GLP-1 concentration by ELISA assay using a GLP-1 enzyme immunoassay kit.

[3] = target: T1, LPAR1 (Homo sapiens, UniProt Q92633); conditions: cited from earlier work
Target sequence in this assay (Q92633 whole entry, species assumed): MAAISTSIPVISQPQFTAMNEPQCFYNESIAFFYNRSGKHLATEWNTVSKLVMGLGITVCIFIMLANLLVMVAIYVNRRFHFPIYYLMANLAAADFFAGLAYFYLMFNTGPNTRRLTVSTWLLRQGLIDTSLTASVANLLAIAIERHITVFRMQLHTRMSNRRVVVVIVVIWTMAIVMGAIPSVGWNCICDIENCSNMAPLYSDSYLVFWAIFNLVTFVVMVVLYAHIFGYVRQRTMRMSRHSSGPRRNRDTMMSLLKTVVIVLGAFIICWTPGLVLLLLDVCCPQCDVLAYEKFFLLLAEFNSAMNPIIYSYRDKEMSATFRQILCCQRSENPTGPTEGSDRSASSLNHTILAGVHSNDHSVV

[4] = target: LPAR2 (Homo sapiens, UniProt Q9HBW0); conditions: cited from earlier work
[5] = target: T2, LPAR3 (Homo sapiens, UniProt Q9UBY5); conditions: cited from earlier work
T2 sequence (Q9UBY5 1-353): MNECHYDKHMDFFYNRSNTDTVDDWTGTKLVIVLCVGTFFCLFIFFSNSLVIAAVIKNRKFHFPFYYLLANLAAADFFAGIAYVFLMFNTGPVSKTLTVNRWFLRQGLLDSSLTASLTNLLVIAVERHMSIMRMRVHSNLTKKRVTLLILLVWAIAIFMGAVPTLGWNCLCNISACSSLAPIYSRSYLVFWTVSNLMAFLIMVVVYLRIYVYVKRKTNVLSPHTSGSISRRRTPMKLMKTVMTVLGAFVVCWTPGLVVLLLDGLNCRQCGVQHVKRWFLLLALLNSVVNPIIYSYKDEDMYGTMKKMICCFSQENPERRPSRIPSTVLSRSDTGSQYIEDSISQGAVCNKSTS

[6] = system: DPP4; experiment: DPP4 activity in serum of C57BI/6J mice; assay type: in vivo; conditions: 50 mg/kg 18:1-LPA i.p., serum 30 minutes later
Procedure: Mice were injected with 5 mg/kg Ki16425 or control (10% DMSO in isotonic saline), then injected 10 mins later with 50 mg/kg 1-18:1-LPA or saline (vehicle control), then euthanized 30 minutes later for serum collection and analysis.
as §1, with “(for” for “(for BMS986020,”, “00842” for “00842, AM966, AM095,”, “AM966),” for “H2L51863030),”, “Ki-16425)” for “Ki-16425, and LPA2-antagonistl)”, “18:1-LPA.” for “LPA.”

[7] = system: insulin secretion; conditions: prior study, Rancoule et al. 2013; cited from earlier work
[8] = system: DPP4; experiment: DPP4 activity in GLUTag cells (fluorometric kit ab204722); assay type: cell-based, mouse
Procedure: Briefly, GLUTag cells were grown to produce the recommended quantity needed for the assay according to the manufacturer's protocol (ab204722 Dipeptidyl peptidase IV Activity Assay Kit (Fluorometric)), and then the wells were treated in media containing charcoal-stripped FBS (10%), with either nothing (no treatment control), or vehicle control (0.05% DMSO), or 2.5 uM 18:1-LPA for 30 minutes, and then the inhibitors (as indicated in the graph of FIG. 17) were added to the vehicle wells and the 2.5 uM 18:1-LPA wells at 10 uM concentrations, as indicated on the graph (FIG. 17), for an additional 2 hours. Cells were then harvested according to the manufacturer's protocol, and lysed using reagents from the kit. Charcoal-stripped FBS was used to remove lipids, including LPA, from serum. Experiments were also carried out wherein the FBS was not stripped with charcoal, and the results were not different.
According to the manufacturer, dipeptidyl peptidase IV (DPP4) Activity Assay Kit (Fluorometric) (ab204722) is an assay where DPP4 cleaves a substrate to release a quenched fluorescent group, AMC (7-Amino-4-Methyl Coumarin), which can be easily detected at Ex/Em=360/460 nm. This assay is rapid, simple, sensitive, and reliable, as well as, suitable for high throughput activity screening of DPP4. This kit detects DPP4 activity as low as 3 ρU per well.

[9] = system: DPP4; experiment: DPP4 activity in serum of C57BI/6J mice; assay type: in vivo
[10] = target: T1, LPAR1; parameters: expressed in transfected cells; host or cells: CHO cells; conditions: LPA-induced calcium response, CHO cells with LPAR1; cited from earlier work
Target sequence in this assay (Q92633 whole entry): as the sequence (Q92633 whole entry, species assumed) above

[11] = antagonist 30 mg/kg by gavage 10 min before 50 mg/kg 18:1-LPA i.p.

Sequence of LPAR2 (Q9HBW0 whole entry, species assumed): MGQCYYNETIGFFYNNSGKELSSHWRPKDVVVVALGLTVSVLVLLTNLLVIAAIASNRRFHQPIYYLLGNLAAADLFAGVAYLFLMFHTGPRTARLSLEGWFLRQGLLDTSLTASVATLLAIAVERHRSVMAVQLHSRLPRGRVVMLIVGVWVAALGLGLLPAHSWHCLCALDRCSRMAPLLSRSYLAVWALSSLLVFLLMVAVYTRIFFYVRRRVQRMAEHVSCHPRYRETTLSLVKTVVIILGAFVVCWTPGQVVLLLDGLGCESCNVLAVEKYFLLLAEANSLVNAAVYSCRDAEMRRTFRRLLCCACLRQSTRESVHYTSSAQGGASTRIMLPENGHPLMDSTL

## Cc1noc(-c2ccc(-c3ccc(C4(C(=O)O)CC4)cc3)cc2)c1NC(=O)O[C@H](C)c1ccccc1 [BMS-986020]
[1]
  effect of LPAR antagonist alone on GLP-1 levels: no significant effect
  rescue of LPA-inhibited GLP-1 secretion by LPAR antagonist: partially rescued
[1]; listed as BMS986020
  rescue of LPA-inhibited GLP-1 secretion by LPAR antagonist: did significantly restore GLP-1 secretion
[2]; [11]
  rescue of the fall in blood GLP-1 levels caused by LPA: did not significantly rescue
[2]; antagonist 30 mg/kg by gavage
  blood GLP-1 with antagonist alone versus vehicles: indistinguishable from mice treated only with the vehicles
[3]
  pKi: > 6.52
[3]; read-out: IC50 for LPAR1
  pIC50: > 6.52

## CCCCCCCCCCCCCCCC(=O)OCC(O)COP(=O)(O)O (stereo not shown) [1-palmitoyl-2-hydroxy-LPA]
[1]; 2.5 μM LPA
  decrease in GLP-1 secretion / level caused by LPA (fraction): over 2/3

## Cc1csc2c(N[C@@H](C)CN3CCN(S(=O)(=O)c4ccc(Cl)c(Cl)c4)CC3)ncnc12 [LPA2-antagonist 1]
[1]
  effect of LPAR antagonist alone on GLP-1 levels: no significant effect
  rescue of LPA-inhibited GLP-1 secretion by LPAR antagonist: complete rescue
[1]; listed as LPA2-antagonist
  effect of LPAR antagonist alone on GLP-1 levels: did not significantly reduce
  rescue of LPA-inhibited GLP-1 secretion by LPAR antagonist: significantly increased
[2]; antagonist 5 mg/kg i.p. 10 min before 50 mg/kg 18:1-LPA i.p.
  rescue of the fall in blood GLP-1 levels caused by LPA: lack of rescue
[2]; antagonist 5 mg/kg i.p. 10 min before 50 mg/kg 18:1-LPA i.p., listed as LPA2-antagonist
  rescue of the fall in blood GLP-1 levels caused by LPA: did not significantly rescue
[2]; antagonist 5 mg/kg i.p.
  blood GLP-1 with antagonist alone versus vehicles: slightly, but significantly lower
[3]; read-out: IC50 for LPAR1
  pIC50: < 4.30
[3]; read-out: IC50 with LPAR1
  pIC50: < 4.30
[4]
  pIC50: 7.77
[5]; read-out: IC50 for LPAR3
  pIC50: < 4.30
[5]; read-out: IC50 with LPAR3
  pIC50: < 4.30

## CCCCCCCCCCCCCCCCCC(=O)OCC(O)COP(=O)(O)O (stereo not shown) [1-stearoyl-2-hydroxy-LPA]
[1]; 2.5 μM LPA
  decrease in GLP-1 secretion / level caused by LPA (fraction): over 2/3

## lysophosphatidic acid [LPA]
[2]
  effect of LPA on circulating GLP-1 levels (words): suppressed
[2]; vehicle (10% DMSO)-treated mice, 50 mg/kg 18:1-LPA i.p., 30 min, serum (Example 6)
  fall in serum GLP-1 levels after LPA injection: > 50%
[6]
  effect of LPA on DPP4 activity in mouse serum: lack of effect; also recorded: not significantly affected
[7]
  insulin secretion in mice injected with LPA: impaired

## O=C(O)/C=C\C(=O)Nc1ccc(Oc2cccc(Oc3ccc(NC(=O)/C=C\C(=O)O)cc3)c2)cc1 [H2L5186303]
[1]
  effect of LPAR antagonist alone on GLP-1 levels: no significant effect; also recorded: did not significantly affect
  rescue of LPA-inhibited GLP-1 secretion by LPAR antagonist: partially rescued
[2]; [11]
  rescue of the fall in blood GLP-1 levels caused by LPA: partially rescued; also recorded: partial rescue
[2]; antagonist 30 mg/kg by gavage
  blood GLP-1 with antagonist alone versus vehicles: slightly, but significantly lower
[3]
  pKi: 4.57
[3]; read-out: IC50 for LPAR1
  pIC50: 4.56
[4]
  pIC50: 8.05
  pKi: 8.05
[5]
  pKi: ~5.30
[5]; read-out: IC50 for LPAR3
  pIC50: 5.35

## COc1ccc(C(=O)NC2(C(=O)O)Cc3ccccc3C2)cc1OCCc1cccc(C)c1 [SAR100842]
[2]; [11]
  rescue of the fall in blood GLP-1 levels caused by LPA: completely abrogated; also recorded: Complete rescues; also recorded: restored to normal levels
[2]; antagonist 30 mg/kg by gavage
  blood GLP-1 with antagonist alone versus vehicles: indistinguishable from mice treated only with the vehicles
[8]; 2.5 uM 18:1-LPA 30 minutes, then 10 uM antagonist 2 hours
  effect of 18:1-LPA combined with LPAR antagonist on DPP4 activity in GLUTag cells: did not significantly affect
[8]; 10 uM antagonist, 2 hours
  effect of LPAR antagonist alone on DPP4 activity in GLUTag cells: did not significantly affect
[3]; in cells, read-out: IC50 in cells for LPAR1
  pIC50: ~7.00
[4]; no activity up to
  concentration up to which no activity with LPAR2: > 10,000 nM
[4]; no reported activity up to
  concentration up to which no reported activity on LPAR2: > 10 µM
[5]; no activity up to
  concentration up to which no activity with LPAR3: > 10,000 nM
[5]; no reported activity up to
  concentration up to which no reported activity on LPAR3: > 10 µM
[9]; 30 mg/kg by gavage
  effect of antagonist on DPP4 activity in mouse serum: did not significantly affect; also recorded: lack of effect; also recorded: not significantly affected
[9]; antagonist 30 mg/kg by gavage then 50 mg/kg 18:1-LPA
  effect of 18:1-LPA combined with antagonist on DPP4 activity in mouse serum: did not affect
[10]
  pIC50: 6.58 to 7.23

## CCCCCCCC/C=C\CCCCCCCC(=O)OC[C@@H](O)COP(=O)(O)O [18:1-LPA, 1-oleoyl-2-hydroxy-LPA]
[1]; 2.5 μM LPA
  decrease in GLP-1 secretion / level caused by LPA (fraction): > 2/3
[1]; 2.5 μM LPA, listed as 1-oleoyl-2-hydroxy-LPA
  decrease in GLP-1 secretion / level caused by LPA (fraction): over 2/3
[2]
  decrease in plasma GLP-1 levels after LPA injection: ~60%
  effect of LPA on circulating GLP-1 levels (words): decreased
[2]; listed as 1-18:1-LPA
  decrease in plasma GLP-1 levels after LPA injection: over 60%
[2]; listed as 1-oleoyl-2-hydroxy-LPA
  effect of LPA on circulating GLP-1 levels (words): decreases circulating GLP-1 levels
[8]; 2.5 uM 18:1-LPA
  effect of LPA on DPP4 activity in GLUTag cells: did not significantly reduce
[6]
  effect of LPA on DPP4 activity in mouse serum: did not affect

## CCCCC/C=C\C/C=C\CCCCCCCC(=O)OCC(O)COP(=O)(O)O (stereo not shown) [18:2-LPA, 1-linoleoyl-2-hydroxy-LPA]
[1]; 2.5 μM LPA
  effect of LPA on GLP-1 secretion: decreases GLP-1 secretion
  decrease in GLP-1 secretion / level caused by LPA (fraction): > 2/3
[1]; 2.5 μM LPA, listed as 1-linoleoyl-2-hydroxy-LPA
  decrease in GLP-1 secretion / level caused by LPA (fraction): over 2/3
